{
  "source": "paper PMC8214221",
  "about": "“Sequence determinants in the cathelicidin LL-37 that promote inflammation via presentation of RNA to scavenger receptors” (The Journal of Biological Chemistry, 2021)",
  "key": {"[1]": {"system": "NHEKs, IL6, IFNB1, TSLP, CXCL10 mRNA", "assay": "qRT-PCR gene expression in NHEKs", "type": "cell-based, human", "conditions": "18 h / 8 h (Fig. 1 legend), n = 3; for Gene expression of IL6, IFNB1, and CXCL10, cotreatment with U1 dsRNA: U1 dsRNA 2.5 μg/ml + peptide 2 μM; for Gene expression of TSLP, peptide alone / Basal expression of IL6, IFNB1, and CXCL10, peptide alone: peptide 2 μM alone; for Gene expression of TSLP, peptide alone: GAPDH reference", "protocol": "Protein levels of human IL-6 were analyzed from cell supernatant with ELISA (n = 3). Corresponding MIC values of LL-34 peptides L1A–R34A against Staphylococcus aureus USA300 are shown in the heat map. B, human dermal endothelial cells (HDMECs) were treated with either U1 dsRNA (2.5 μg/ml) or a combination of U1 dsRNA (2.5 μg/ml) and LL-34 peptides (Pep 1–Pep 34 and Pep–parent LL-34) at 2 μM for 18 h. IL-6 ELISA results are shown (n = 3). Green bars denote loss of IL-6 protein secretion compared with parent control shown in red. C, helical wheel plot for LL-34. Amino acids with green circles denote specific residues where replacement with an alanine caused the loss of IL-6 secretion compared with parent LL-34 peptide in NHEKs cotreated with U1 dsRNA. D, in the helical wheel plot for LL-34, circled green amino acids indicate that a substitution caused a loss of vetting in HDMEC. E–H, NHEKs were treated with LL-34-parent peptide (LL-34-P), LL-34-F5A, LL-34-I24A, LL-34-F27A, and LL-34-L31A at 2 μM, either individually or in combination with U1 dsRNA (2.5 μg/ml) for 8 h. Gene expression of IL-6, IFNB1, TSLP, and CXCL10 was assessed with qRT-PCR. GAPDH was used as a reference gene (n = 3) (∗p < 0.05; ∗∗∗∗p < 0.0001). One way-ANOVA was used. IL-6, interleukin 6; LL-34, 34-amino acid peptide; MIC, minimum inhibitory concentration, ns, not significant.\n(§1) We further looked at mRNA abundance by quantitative RT-PCR (qRT-PCR) to evaluate gene expression for type 1 interferon IFNB1, chemokine CXCL10, and cytokines TSLP and IL6 in NHEKs treated with selected LL-34 parent, LL-34—F5A, I24A, F27A, and L31A—peptides either alone or in combination with U1 dsRNA for 18 h (Fig. 1, E–H).\nRNA extracted from cells (Pure Link RNA Isolation Kit; Life Technologies) was quantified on the Nanodrop 2000/200C Spectrophotometer (Thermo Fisher Scientific). About 500 ng of purified RNA was used to synthesize complementary DNA with iScript cDNA Synthesis Kit (Bio-Rad). Predeveloped Taqman (Thermo Fisher Scientific) gene expression assays were used to evaluate mRNA transcript levels. Taqman cycling conditions were used as previously described ([9], [45]). All experiments were performed on a CFX96 system (Bio-Rad). Fold change relative to GAPDH was calculated using the Livak ΔΔCt method ([46])."}, "[2]": {"system": "normal human epidermal keratinocytes (NHEKs)", "assay": "LDH release cytotoxicity assay in keratinocytes", "type": "cell-based", "conditions": "minimal concentration giving 50% LDH release by NHEKs", "summary_of_the_method": "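Normal human epidermal keratinocytes were exposed to LL-34 parent and alanine-substituted peptides. Cytotoxicity was read as LDH release in fresh culture supernatants after treatment, using a commercial kit, and reported as the minimal concentration showing toxicity.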"}, "Escherichia coli": {"system": "Escherichia coli", "assay": "Bacterial growth inhibition (OD600), E. coli", "type": "cell-based", "conditions": "0-50 µM overnight, OD 600, n = 3", "protocol": "as §1\n(§2) Methicillin-resistant S. aureus USA300 and methicillin-sensitive S. aureus SA113 (American Type Culture Collection 35556) were cultured in 3% tryptic soy broth overnight at 37 °C with shaking at 250 rpm. GAS M49 strain NZ131 was cultured in Todd Hewitt broth supplemented with 1% yeast extract overnight at 37 °C without shaking. E. coli R1 strain RS218 was cultured in LB broth overnight at 37 °C with shaking at 250 rpm. MIC values were determined using a round-bottom 96-well microdilution method with RPMI cell culture media (as a source of Ca^2+ and Mg^2+) supplemented with tryptic soy broth, Todd Hewitt broth/yeast extract, or LB to facilitate growth of the respective bacterial strains. Overnight bacterial cultures were subcultured into fresh broth and grown to midlate log phase indicated by an absorbance at 600 nm value between 0.8 and 1.0 for each bacterial strain. The absorbance was then normalized to provide a concentration of 1 × 10^7 colony-forming units/ml in RPMI medium. The LL-34 parent and alanine scan mutants were serially diluted into the 96-well microtiter plates containing prewarmed RPMI bacterial growth medium. A 10 μl aliquot of the midlate log phase bacteria was inoculated into the 96-well microtiter plates that contained 95 μl of RPMI medium with or without the LL-34 peptide dilutions and incubated for 16 to 18 h at […] with shaking at 200 rpm. Inhibition of growth was determined by measuring the absorbance at 600 nm readings of each well using a microplate reader (Infinite M200 Pro; Tecan). The MIC of each bacterial strain was determined by the lowest peptide concentration that inhibited more than 80% bacterial growth.\n(§3) (A) NHEKs and HDMECs (B) were treated with LL34- parent peptide and all the 34 alanine substituted peptides (Pep L1A-Pep R34A) and LL37 at 2 µM for 16 h. IL-6 protein secretion was assessed with ELISA (n=3) (C-F) LL34-Parent, LL34 F5A, LL34 I24A, LL34 F27A, and LL34 L31A peptides were incubated with S. aureus USA 300, S. aureus SA113, Group A Streptococcus (GAS) and E. coli at increasing concentrations (0-50 µM) overnight, and bacterial culture growth was assayed as absorbance at OD 600 (n=3)."}, "[3]": {"system": "NHEKs, IL-6 secretion in response to U1 dsRNA", "assay": "IL-6 secretion ELISA in NHEKs", "type": "cell-based, human", "conditions": "U1 dsRNA 2.5 μg/ml + peptide 2 μM, 18 h, n = 3", "summary_of_the_method": "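NHEKs (also HDMECs) exposed to LL-34 parent or alanine-scan peptides at 2 μM, alone or with U1 dsRNA (2.5 μg/ml), for 18 h. Secreted IL-6 in supernatant quantified by sandwich ELISA (n = 3).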"}, "[4]": {"system": "S. aureus strain USA300 and SA112, GAS", "assay": "Bacterial growth inhibition (OD600), Gram-positive strains", "type": "cell-based, Staphylococcus aureus; group A Streptococcus", "conditions": "0-50 µM overnight, OD 600, n = 3, S. aureus USA300, SA113 (SA112 in text)", "protocol": "as §1, §2, §3"}},
  "note": "Residues, ends and D or L forms follow the SMILES beside them.",
  "data": [
    {"smiles": "CC[C@H](C)[C@H](NC(=O)[C@H](CCCCN)NC(=O)[C@H](CCC(=O)O)NC(=O)[C@H](CCCCN)NC(=O)[C@H](CO)NC(=O)[C@H](CCCCN)NC(=O)[C@H](CCCNC(=N)N)NC(=O)[C@H](Cc1ccccc1)NC(=O)[C@H](Cc1ccccc1)NC(=O)[C@H](CC(=O)O)NC(=O)CNC(=O)[C@H](CC(C)C)NC(=O)[C@@H](N)CC(C)C)C(=O)NCC(=O)N[C@@H](CCCCN)C(=O)N[C@@H](CCC(=O)O)C(=O)N[C@@H](Cc1ccccc1)C(=O)N[C@@H](CCCCN)C(=O)N[C@@H](CCCNC(=N)N)C(=O)N[C@H](C(=O)N[C@H](C(=O)N[C@@H](CCC(N)=O)C(=O)N[C@@H](CCCNC(=N)N)C(=O)N[C@H](C(=O)N[C@@H](CCCCN)C(=O)N[C@@H](CC(=O)O)C(=O)N[C@@H](C)C(=O)N[C@@H](CC(C)C)C(=O)N[C@@H](CCCNC(=N)N)C(=O)N[C@@H](CC(N)=O)C(=O)N[C@@H](CC(C)C)C(=O)N[C@H](C(=O)N1CCC[C@H]1C(=O)N[C@@H](CCCNC(=N)N)C(=O)O)C(C)C)[C@@H](C)CC)C(C)C)[C@@H](C)CC", "note": "[LL-34—F27A] (H-LLGDFFRKSKEKIGKEFKRIVQRIKDALRNLVPR-OH)", "values": [
      {"measurement": "Gene expression of IL6, IFNB1, and CXCL10, cotreatment with U1 dsRNA", "setting": "[1]", "result": "reduction in gene expression"},
      {"measurement": "Gene expression of TSLP, peptide alone", "setting": "[1]", "result": "increased gene expression of TSLP"},
      {"measurement": "Basal expression of IL6, IFNB1, and CXCL10, peptide alone", "setting": "[1]", "result": "not affected"},
      {"measurement": "Minimal cytotoxic concentration in NHEK (LD50)", "setting": "[2]", "result": 10, "unit": "µM"},
      {"measurement": "Action against Gram-negative E. coli", "setting": "Escherichia coli", "result": "little action"},
      {"measurement": "IL-6 protein secretion, cotreatment with U1 dsRNA, vs U1 dsRNA + LL-34 parent", "setting": "[3]", "result": "reduced secretion of IL-6 protein"},
      {"measurement": "Capacity to inhibit growth of Gram-positive bacteria", "setting": "[4]", "result": "increased capacity to inhibit growth of most of the tested Gram-positive bacteria"}
    ]},
    {"smiles": "CC[C@H](C)[C@H](NC(=O)[C@H](CCCCN)NC(=O)[C@H](CCC(=O)O)NC(=O)[C@H](CCCCN)NC(=O)[C@H](CO)NC(=O)[C@H](CCCCN)NC(=O)[C@H](CCCNC(=N)N)NC(=O)[C@H](Cc1ccccc1)NC(=O)[C@H](C)NC(=O)[C@H](CC(=O)O)NC(=O)CNC(=O)[C@H](CC(C)C)NC(=O)[C@@H](N)CC(C)C)C(=O)NCC(=O)N[C@@H](CCCCN)C(=O)N[C@@H](CCC(=O)O)C(=O)N[C@@H](Cc1ccccc1)C(=O)N[C@@H](CCCCN)C(=O)N[C@@H](CCCNC(=N)N)C(=O)N[C@H](C(=O)N[C@H](C(=O)N[C@@H](CCC(N)=O)C(=O)N[C@@H](CCCNC(=N)N)C(=O)N[C@H](C(=O)N[C@@H](CCCCN)C(=O)N[C@@H](CC(=O)O)C(=O)N[C@@H](Cc1ccccc1)C(=O)N[C@@H](CC(C)C)C(=O)N[C@@H](CCCNC(=N)N)C(=O)N[C@@H](CC(N)=O)C(=O)N[C@@H](CC(C)C)C(=O)N[C@H](C(=O)N1CCC[C@H]1C(=O)N[C@@H](CCCNC(=N)N)C(=O)O)C(C)C)[C@@H](C)CC)C(C)C)[C@@H](C)CC", "note": "[LL-34—F5A] (H-LLGDAFRKSKEKIGKEFKRIVQRIKDFLRNLVPR-OH)", "values": [
      {"measurement": "Gene expression of IL6, IFNB1, and CXCL10, cotreatment with U1 dsRNA", "setting": "[1]", "result": "reduction in gene expression"},
      {"measurement": "Gene expression of TSLP, peptide alone", "setting": "[1]", "result": "increased gene expression of TSLP"},
      {"measurement": "Basal expression of IL6, IFNB1, and CXCL10, peptide alone", "setting": "[1]", "result": "not affected"},
      {"measurement": "Minimal cytotoxic concentration in NHEK (LD50)", "setting": "[2]", "result": 10, "unit": "µM"},
      {"measurement": "Action against Gram-negative E. coli", "setting": "Escherichia coli", "result": "little action"},
      {"measurement": "IL-6 protein secretion, cotreatment with U1 dsRNA, vs U1 dsRNA + LL-34 parent", "setting": "[3]", "result": "reduced secretion of IL-6 protein"},
      {"measurement": "Capacity to inhibit growth of Gram-positive bacteria", "setting": "[4]", "result": "increased capacity to inhibit growth of most of the tested Gram-positive bacteria"}
    ]}
  ]
}
